Experiments:
[1] = compound: CCc1cnn2c(NCc3ccc[n+]([O-])c3)cc(N3CCCC[C@H]3CCO)nc12; assay: GR value, 72 h; higher = faster growth (1 = untreated, <0 = killing);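 also: breast cancer and non-malignant breast epithelial lines, nine half-log doses, viable cells counted by Hoechst and LIVE/DEAD dye imaging versus time-zero plates and DMSO controls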
YKL-5-124 = compound: C=CC(=O)Nc1ccc(C(=O)Nc2[nH]nc3c2CN(C(=O)N[C@H](CN(C)C)c2ccccc2)C3(C)C)cc1 [YKL-5-124]; assay: as above
[2] = compound: CC(=O)c1c(C)c2cnc(Nc3ccc(N4CCNCC4)cn3)nc2n(C2CCCC2)c1=O; assay: as above
Flavopiridol [3] = compound: T1, CN1CC[C@H](c2c(O)cc(O)c3c(=O)cc(-c4ccccc4Cl)oc23)[C@H](O)C1 [Flavopiridol]; assay: as above
THZ531 = compound: CN(C)C/C=C/C(=O)Nc1ccc(C(=O)N2CCC[C@@H](Nc3ncc(Cl)c(-c4c[nH]c5ccccc45)n3)C2)cc1 [THZ531]; assay: as above
LEE011/Ribociclib = compound: CN(C)C(=O)c1cc2cnc(Nc3ccc(N4CCNCC4)cn3)nc2n1C1CCCC1 [LEE011/Ribociclib]; assay: as above
[4] = compound: CCN1CCN(Cc2ccc(Nc3ncc(F)c(-c4cc(F)c5nc(C)n(C(C)C)c5c4)n3)nc2)CC1; assay: as above
BSJ-03-123 = compound: CC(=O)c1c(C)c2cnc(Nc3ccc(N4CCN(CCOCCOCCOCCNC(=O)COc5cccc6c5C(=O)N(C5CCC(=O)NC5=O)C6=O)CC4)cn3)nc2n(C2CCCC2)c1=O [BSJ-03-123]; assay: as above
Olaparib/AZD2281 = compound: O=C(c1cc(Cc2n[nH]c(=O)c3ccccc23)ccc1F)N1CCN(C(=O)C2CC2)CC1 [Olaparib/AZD2281]
Paclitaxel = compound: CC(=O)O[C@H]1C(=O)[C@@]2(C)[C@H]([C@H](OC(=O)c3ccccc3)[C@]3(O)C[C@H](OC(=O)[C@H](O)[C@@H](NC(=O)c4ccccc4)c4ccccc4)C(C)=C1C3(C)C)[C@]1(OC(C)=O)CO[C@@H]1C[C@@H]2O [Paclitaxel]
BSJ-01-175 = compound: CN(C)C/C=C/C(=O)Nc1ccc(O[C@@H]2CCC[C@@H](Nc3ncc(Cl)c(-c4c[nH]c5ccccc45)n3)C2)cc1 [BSJ-01-175]
Flavopiridol [5] = compound: T1, Flavopiridol
Taselisib/GDC0032 = compound: Cc1nc(-c2cn3c(n2)-c2ccc(-c4cnn(C(C)(C)C(N)=O)c4)cc2OCC3)n(C(C)C)n1 [Taselisib/GDC0032]
Ipatasertib/GDC0068 = compound: CC(C)NC[C@@H](C(=O)N1CCN(c2ncnc3c2[C@H](C)C[C@H]3O)CC1)c1ccc(Cl)cc1 [Ipatasertib/GDC0068]
Luminespib/NVP-AUY922 = compound: CCNC(=O)c1noc(-c2cc(C(C)C)c(O)cc2O)c1-c1ccc(CN2CCOCC2)cc1 [Luminespib/NVP-AUY922]
ABT-737 = compound: CN(C)CC[C@H](CSc1ccccc1)Nc1ccc(S(=O)(=O)NC(=O)c2ccc(N3CCN(Cc4ccccc4-c4ccc(Cl)cc4)CC3)cc2)cc1[N+](=O)[O-] [ABT-737]
Doxorubicin = compound: COc1cccc2c1C(=O)c1c(O)c3c(c(O)c1C2=O)C[C@@](O)(C(=O)CO)C[C@@H]3O[C@H]1C[C@H](N)[C@H](O)[C@H](C)O1 [Doxorubicin]
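For GR50, 72 h in this document: breast cancer and non-malignant breast epithelial cell lines, Deep Dye Drop or Dye Drop imaging, nine half-log doses, GR normalized to time-zero plates and DMSO-only controls.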

## BT20
[1]; 0.0001 µM
  GR value: 0.951 GR
[1]; 0.0003162 µM
  GR value: 1.01 GR
[1]; 0.001 µM
  GR value: 0.998 GR
[1]; 0.003162 µM
  GR value: 1.1 GR
[1]; 0.01 µM
  GR value: 0.929 GR
[1]; 0.03162 µM
  GR value: -0.235 GR
[1]; 0.1 µM
  GR value: -0.645 GR
[1]; 0.3162 µM
  GR value: -0.672 GR
[1]; 1 µM
  GR value: -0.698 GR
YKL-5-124; 0.001 µM
  GR value: 0.835 GR
YKL-5-124; 0.003162 µM
  GR value: 0.664 GR
YKL-5-124; 0.01 µM
  GR value: 0.432 GR
YKL-5-124; 0.03162 µM
  GR value: 0.395 GR
YKL-5-124; 0.1 µM
  GR value: 0.219 GR
YKL-5-124; 0.3162 µM
  GR value: 0.229 GR
YKL-5-124; 1 µM
  GR value: 0.13 GR
YKL-5-124; 3.162 µM
  GR value: 0.0428 GR
YKL-5-124; 10 µM
  GR value: -0.116 GR
[2]; 0.0003162 µM
  GR value: 1.07 GR
[2]; 0.001 µM
  GR value: 1.09 GR
[2]; 0.003162 µM
  GR value: 0.956 GR
[2]; 0.01 µM
  GR value: 0.809 GR
[2]; 0.03162 µM
  GR value: 0.567 GR
[2]; 0.1 µM
  GR value: 0.36 GR
[2]; 0.3162 µM
  GR value: 0.24 GR
[2]; 1 µM
  GR value: 0.203 GR
[2]; 3.162 µM
  GR value: 0.156 GR
Flavopiridol [3]; 0.0001 µM
  GR value: 0.987 GR
Flavopiridol [3]; 0.0003162 µM
  GR value: 0.946 GR
Flavopiridol [3]; 0.001 µM
  GR value: 0.999 GR
Flavopiridol [3]; 0.003162 µM
  GR value: 0.931 GR
Flavopiridol [3]; 0.01 µM
  GR value: 0.993 GR
Flavopiridol [3]; 0.03162 µM
  GR value: 0.835 GR
Flavopiridol [3]; 0.1 µM
  GR value: 0.593 GR
Flavopiridol [3]; 0.3162 µM
  GR value: -0.0024 GR
Flavopiridol [3]; 1 µM
  GR value: -0.639 GR
THZ531; 0.0001 µM
  GR value: 1 GR
THZ531; 0.0003162 µM
  GR value: 0.93 GR
THZ531; 0.001 µM
  GR value: 0.967 GR
THZ531; 0.003162 µM
  GR value: 0.988 GR
THZ531; 0.01 µM
  GR value: 1.09 GR
THZ531; 0.03162 µM
  GR value: 1 GR
THZ531; 0.1 µM
  GR value: 0.927 GR
THZ531; 0.3162 µM
  GR value: 0.907 GR
THZ531; 1 µM
  GR value: 0.647 GR
LEE011/Ribociclib; 0.001 µM
  GR value: 0.818 GR
LEE011/Ribociclib; 0.003162 µM
  GR value: 0.759 GR
LEE011/Ribociclib; 0.01 µM
  GR value: 0.624 GR
LEE011/Ribociclib; 0.03162 µM
  GR value: 0.672 GR
LEE011/Ribociclib; 0.1 µM
  GR value: 0.651 GR
LEE011/Ribociclib; 0.3162 µM
  GR value: 0.49 GR
LEE011/Ribociclib; 1 µM
  GR value: 0.463 GR
LEE011/Ribociclib; 3.162 µM
  GR value: 0.384 GR
LEE011/Ribociclib; 10 µM
  GR value: 0.0703 GR
[4]; 0.001 µM
  GR value: 0.933 GR
[4]; 0.003162 µM
  GR value: 0.9 GR
[4]; 0.01 µM
  GR value: 0.69 GR
[4]; 0.03162 µM
  GR value: 0.489 GR
[4]; 0.1 µM
  GR value: 0.331 GR
[4]; 0.3162 µM
  GR value: 0.264 GR
[4]; 1 µM
  GR value: 0.231 GR
[4]; 3.162 µM
  GR value: 0.163 GR
[4]; 10 µM
  GR value: -0.21 GR
BSJ-03-123; 0.001 µM
  GR value: 0.934 GR
BSJ-03-123; 0.003162 µM
  GR value: 0.738 GR
BSJ-03-123; 0.01 µM
  GR value: 0.759 GR
BSJ-03-123; 0.03162 µM
  GR value: 0.7 GR
BSJ-03-123; 0.1 µM
  GR value: 0.664 GR
BSJ-03-123; 0.3162 µM
  GR value: 0.528 GR
BSJ-03-123; 1 µM
  GR value: 0.445 GR
BSJ-03-123; 3.162 µM
  GR value: 0.365 GR
BSJ-03-123; 10 µM
  GR value: 0.0085 GR
Olaparib/AZD2281
  GR50, 72 h: > 10 µM
Paclitaxel
  GR50, 72 h: 0.00202 µM
BSJ-01-175
  GR50, 72 h: 0.0388 µM
Flavopiridol [5]
  GR50, 72 h: 0.11 µM
Taselisib/GDC0032
  GR50, 72 h: 0.0181 µM
Ipatasertib/GDC0068
  GR50, 72 h: 0.645 µM
Luminespib/NVP-AUY922
  GR50, 72 h: 0.00597 µM
ABT-737
  GR50, 72 h: > 10 µM
Doxorubicin
  GR50, 72 h: 0.00874 µM

## SUM1315
[1]; 0.0001 µM
  GR value: 1.11 GR
[1]; 0.0003162 µM
  GR value: 0.993 GR
[1]; 0.001 µM
  GR value: 1.01 GR
[1]; 0.003162 µM
  GR value: 0.916 GR
[1]; 0.01 µM
  GR value: 0.617 GR
[1]; 0.03162 µM
  GR value: -0.616 GR
[1]; 0.1 µM
  GR value: -0.644 GR
[1]; 0.3162 µM
  GR value: -0.639 GR
[1]; 1 µM
  GR value: -0.664 GR
YKL-5-124; 0.001 µM
  GR value: 0.771 GR
YKL-5-124; 0.003162 µM
  GR value: 0.514 GR
YKL-5-124; 0.01 µM
  GR value: 0.439 GR
YKL-5-124; 0.03162 µM
  GR value: 0.478 GR
YKL-5-124; 0.1 µM
  GR value: 0.393 GR
YKL-5-124; 0.3162 µM
  GR value: 0.264 GR
YKL-5-124; 1 µM
  GR value: 0.133 GR
YKL-5-124; 3.162 µM
  GR value: 0.0326 GR
YKL-5-124; 10 µM
  GR value: -0.443 GR
[2]; 0.0003162 µM
  GR value: 1.07 GR
[2]; 0.001 µM
  GR value: 0.996 GR
[2]; 0.003162 µM
  GR value: 0.938 GR
[2]; 0.01 µM
  GR value: 0.855 GR
[2]; 0.03162 µM
  GR value: 0.593 GR
[2]; 0.1 µM
  GR value: 0.522 GR
[2]; 0.3162 µM
  GR value: 0.365 GR
[2]; 1 µM
  GR value: 0.417 GR
[2]; 3.162 µM
  GR value: 0.293 GR
Flavopiridol [3]; 0.0001 µM
  GR value: 1.09 GR
Flavopiridol [3]; 0.0003162 µM
  GR value: 0.97 GR
Flavopiridol [3]; 0.001 µM
  GR value: 0.741 GR
Flavopiridol [3]; 0.003162 µM
  GR value: 0.795 GR
Flavopiridol [3]; 0.01 µM
  GR value: 0.876 GR
Flavopiridol [3]; 0.03162 µM
  GR value: 0.76 GR
Flavopiridol [3]; 0.1 µM
  GR value: 0.647 GR
Flavopiridol [3]; 0.3162 µM
  GR value: -0.451 GR
Flavopiridol [3]; 1 µM
  GR value: -0.887 GR
THZ531; 0.0001 µM
  GR value: 0.9 GR
THZ531; 0.0003162 µM
  GR value: 1.1 GR
THZ531; 0.001 µM
  GR value: 0.822 GR
THZ531; 0.003162 µM
  GR value: 0.987 GR
THZ531; 0.01 µM
  GR value: 1.1 GR
THZ531; 0.03162 µM
  GR value: 1.14 GR
THZ531; 0.1 µM
  GR value: 1.04 GR
THZ531; 0.3162 µM
  GR value: 0.685 GR
THZ531; 1 µM
  GR value: -0.604 GR
LEE011/Ribociclib; 0.001 µM
  GR value: 0.841 GR
LEE011/Ribociclib; 0.003162 µM
  GR value: 0.69 GR
LEE011/Ribociclib; 0.01 µM
  GR value: 0.764 GR
LEE011/Ribociclib; 0.03162 µM
  GR value: 0.763 GR
LEE011/Ribociclib; 0.1 µM
  GR value: 0.671 GR
LEE011/Ribociclib; 0.3162 µM
  GR value: 0.57 GR
LEE011/Ribociclib; 1 µM
  GR value: 0.582 GR
LEE011/Ribociclib; 3.162 µM
  GR value: 0.527 GR
LEE011/Ribociclib; 10 µM
  GR value: 0.445 GR
[4]; 0.001 µM
  GR value: 1.08 GR
[4]; 0.003162 µM
  GR value: 0.8 GR
[4]; 0.01 µM
  GR value: 0.704 GR
[4]; 0.03162 µM
  GR value: 0.436 GR
[4]; 0.1 µM
  GR value: 0.402 GR
[4]; 0.3162 µM
  GR value: 0.259 GR
[4]; 1 µM
  GR value: 0.177 GR
[4]; 3.162 µM
  GR value: 0.109 GR
[4]; 10 µM
  GR value: -0.164 GR
BSJ-03-123; 0.001 µM
  GR value: 0.883 GR
BSJ-03-123; 0.003162 µM
  GR value: 0.736 GR
BSJ-03-123; 0.01 µM
  GR value: 0.79 GR
BSJ-03-123; 0.03162 µM
  GR value: 0.651 GR
BSJ-03-123; 0.1 µM
  GR value: 0.822 GR
BSJ-03-123; 0.3162 µM
  GR value: 0.641 GR
BSJ-03-123; 1 µM
  GR value: 0.497 GR
BSJ-03-123; 3.162 µM
  GR value: 0.572 GR
BSJ-03-123; 10 µM
  GR value: 0.21 GR
Olaparib/AZD2281
  GR50, 72 h: 2.03 µM
Paclitaxel
  GR50, 72 h: 0.00246 µM
BSJ-01-175
  GR50, 72 h: 0.419 µM
Flavopiridol [5]
  GR50, 72 h: 0.104 µM
Taselisib/GDC0032
  GR50, 72 h: 0.516 µM
Ipatasertib/GDC0068
  GR50, 72 h: > 10 µM
Luminespib/NVP-AUY922
  GR50, 72 h: 0.00486 µM
ABT-737
  GR50, 72 h: 5.96 µM
Doxorubicin
  GR50, 72 h: 0.0182 µM
